Source: patent US20240300932A1, “N-PHENYLIMINE DERIVATIVE AND PREPARATION METHOD AND USE THEREOF” (Guizhou University, priority 2023, published 2024)

What was measured:
[1] = tested on: Abutilon theophrasti; assay: Post-emergence herbicidal activity test (stem and leaf spray, pot culture); assay type: in vivo; conditions: 3 weeks after spraying
Summary of the method: (§1)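 Pot-grown weeds in loam (pH 7, 1.63% organic matter) were spray-treated on stems and leaves at the 2- to 3-leaf stage with compound in acetone/Tween 80 plus 1.5 liters/ha methyl oleate at 10, 5 or 2.5 g/mu. Fresh-weight growth control was scored 3 weeks later as grades 0–5.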

[2] = tested on: Amaranthus retroflexus; assay: as above; assay type: in vivo; conditions: 3 weeks after spraying
Summary of the method: as §1

[3] = tested on: Echinochloa crusgalli; assay: as above; assay type: in vivo; conditions: 3 weeks after spraying
Summary of the method: as §1

[4] = tested on: Portulaca oleracea; assay: as above; assay type: in vivo; conditions: 3 weeks after spraying
Summary of the method: as §1

[5] = tested on: Setaria viridis; assay: as above; assay type: in vivo; conditions: 3 weeks after spraying
Summary of the method: as §1

[6] = tested on: Trifoliumre pensL.; assay: Post-emergence herbicidal activity test (stem and leaf spray, pot culture); assay type: in vivo; conditions: 3 weeks after spraying
Summary of the method: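 Rates of 10, 5 and 2.5 g/mu were applied in a single spray-tower treatment to 2–3-leaf plants, thinned to 10 per pot. Formulation: acetone solution, Tween 80, 1.5 L/ha methyl oleate synergist. Weed response assessed after 3 further greenhouse weeks; mean of three experiments.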

Row | SMILES | Post-emergence herbicidal activity, A. theophrasti (grade) ([1]; dosage 2.5 g/mu) | Post-emergence herbicidal activity, A. theophrasti (grade) ([1]; dosage 5 g/mu) | Post-emergence herbicidal activity, A. theophrasti (grade) ([1]; dosage 10 g/mu) | Post-emergence herbicidal activity, A. retroflexus (grade) ([2]; dosage 2.5 g/mu) | Post-emergence herbicidal activity, A. retroflexus (grade) ([2]; dosage 5 g/mu) | Post-emergence herbicidal activity, A. retroflexus (grade) ([2]; dosage 10 g/mu) | Post-emergence herbicidal activity, E. crusgalli (grade) ([3]; dosage 2.5 g/mu) | Post-emergence herbicidal activity, E. crusgalli (grade) ([3]; dosage 5 g/mu) | Post-emergence herbicidal activity, E. crusgalli (grade) ([3]; dosage 10 g/mu) | Post-emergence herbicidal activity, P. oleracea (grade) ([4]; dosage 2.5 g/mu) | Post-emergence herbicidal activity, P. oleracea (grade) ([4]; dosage 5 g/mu) | Post-emergence herbicidal activity, P. oleracea (grade) ([4]; dosage 10 g/mu) | Post-emergence herbicidal activity, S. viridis (grade) ([5]; dosage 2.5 g/mu) | Post-emergence herbicidal activity, S. viridis (grade) ([5]; dosage 5 g/mu) | Post-emergence herbicidal activity, S. viridis (grade) ([5]; dosage 10 g/mu) | melting point | Post-emergence herbicidal activity, Trifoliumre pensL. (grade) ([6]; dosage 2.5 g/mu) | Post-emergence herbicidal activity, Trifoliumre pensL. (grade) ([6]; dosage 5 g/mu) | Post-emergence herbicidal activity, Trifoliumre pensL. (grade) ([6]; dosage 10 g/mu)
1 | O=C1C2=C(CCCC2)C(=O)N1c1cc(OCc2ccc(F)cc2)c(Cl)cc1F [Compound C10, 2-(4-chloro-2-fluoro-5-((4-fluorobenzyl)oxy)phenyl)-4,5,6,7-tetrahydro-1H-isoindole-1,3(2H)-dione] | 5 (Grade 5: the growth control rate is greater than or equal to 85%) | 5 (Grade 5: the growth control rate is greater than or equal to 85%) | 5 (Grade 5: the growth control rate is greater than or equal to 85%) | 5 (Grade 5: the growth control rate is greater than or equal to 85%) | 5 (Grade 5: the growth control rate is greater than or equal to 85%) | 5 (Grade 5: the growth control rate is greater than or equal to 85%) | 1 (Grade 1: the growth control rate is greater than or equal to 5% and less than 20%) | 2 (Grade 2: the growth control rate is greater than or equal to 20% and less than 40%) | 3 (Grade 3: the growth control rate is greater than or equal to 40% and less than 60%) | 5 (Grade 5: the growth control rate is greater than or equal to 85%) | 5 (Grade 5: the growth control rate is greater than or equal to 85%) | 5 (Grade 5: the growth control rate is greater than or equal to 85%) | 2 (Grade 2: the growth control rate is greater than or equal to 20% and less than 40%) | 3 (Grade 3: the growth control rate is greater than or equal to 40% and less than 60%) | 4 (Grade 4: the growth control rate is greater than or equal to 60% and less than 85%) | 119 to 121 °C | 5 (Grade 5: the growth control rate is greater than or equal to 85%) | 5 (Grade 5: the growth control rate is greater than or equal to 85%) | 5 (Grade 5: the growth control rate is greater than or equal to 85%)
2 | O=C(COc1cc(N2C(=O)C3=C(CCCC3)C2=O)c(F)cc1Cl)c1ccc(F)cc1F [Compound C12, 2-(4-chloro-2-fluoro-5-(2-oxo-2-(2,4-difluorophenyl)ethoxy)phenyl)-4,5,6,7-tetrahydro-1H-isoindole-1,3(2H)-dione] | 5 (Grade 5: the growth control rate is greater than or equal to 85%) | 5 (Grade 5: the growth control rate is greater than or equal to 85%) | 5 (Grade 5: the growth control rate is greater than or equal to 85%) | 5 (Grade 5: the growth control rate is greater than or equal to 85%) | 5 (Grade 5: the growth control rate is greater than or equal to 85%) | 5 (Grade 5: the growth control rate is greater than or equal to 85%) | 1 (Grade 1: the growth control rate is greater than or equal to 5% and less than 20%) | 2 (Grade 2: the growth control rate is greater than or equal to 20% and less than 40%) | 3 (Grade 3: the growth control rate is greater than or equal to 40% and less than 60%) | 5 (Grade 5: the growth control rate is greater than or equal to 85%) | 5 (Grade 5: the growth control rate is greater than or equal to 85%) | 5 (Grade 5: the growth control rate is greater than or equal to 85%) | 2 (Grade 2: the growth control rate is greater than or equal to 20% and less than 40%) | 3 (Grade 3: the growth control rate is greater than or equal to 40% and less than 60%) | 4 (Grade 4: the growth control rate is greater than or equal to 60% and less than 85%) | 158 to 160 °C | 5 (Grade 5: the growth control rate is greater than or equal to 85%) | 5 (Grade 5: the growth control rate is greater than or equal to 85%) | 5 (Grade 5: the growth control rate is greater than or equal to 85%)
3 | N#Cc1ccc(C(=O)COc2cc(N3C(=O)C4=C(CCCC4)C3=O)c(F)cc2Cl)cc1 [Compound C3, 2-(4-chloro-2-fluoro-5-(2-oxo-2-(4-cyanophenyl)ethoxy)phenyl)-4,5,6,7-tetrahydro-1H-isoindole-1,3(2H)-dione] | 5 (Grade 5: the growth control rate is greater than or equal to 85%) | 5 (Grade 5: the growth control rate is greater than or equal to 85%) | 5 (Grade 5: the growth control rate is greater than or equal to 85%) | 5 (Grade 5: the growth control rate is greater than or equal to 85%) | 5 (Grade 5: the growth control rate is greater than or equal to 85%) | 5 (Grade 5: the growth control rate is greater than or equal to 85%) | 1 (Grade 1: the growth control rate is greater than or equal to 5% and less than 20%) | 2 (Grade 2: the growth control rate is greater than or equal to 20% and less than 40%) | 3 (Grade 3: the growth control rate is greater than or equal to 40% and less than 60%) | 5 (Grade 5: the growth control rate is greater than or equal to 85%) | 5 (Grade 5: the growth control rate is greater than or equal to 85%) | 5 (Grade 5: the growth control rate is greater than or equal to 85%) | 2 (Grade 2: the growth control rate is greater than or equal to 20% and less than 40%) | 3 (Grade 3: the growth control rate is greater than or equal to 40% and less than 60%) | 4 (Grade 4: the growth control rate is greater than or equal to 60% and less than 85%) | 171 to 178 °C | 5 (Grade 5: the growth control rate is greater than or equal to 85%) | 5 (Grade 5: the growth control rate is greater than or equal to 85%) | 5 (Grade 5: the growth control rate is greater than or equal to 85%)
